From ChEMBL document CHEMBL1201862, “PubChem BioAssay data set” (2004) come the findings set out here.

Test systems include DU-145; BT-549; MDA-N; M14; NCI-H522; MDA-MB-231; COLO 205; ACHN; TK-10; SNB-19; HOP-62; LOX IMVI; NCI-H23; U-251; SF-295; SK-MEL-28; NCI-H226; SF-539; SK-MEL-5; UO-31.
What all share (assay): growth of human tumour cells (NCI), 48 h

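Method: 48-hour compound exposure of cells in 96-well plates, five concentrations, linear interpolation of endpoints. Here, GI50 denotes the concentration required for 50% inhibition of growth.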 Calls of active or inactive are those of the source. No stated cut-off is given here; in the data, active = GI50 up to about 1.1 µM and inactive = higher.

`CCNC(=O)OCC1C2=C(C(=O)C(C)=C(N)C2=O)N2CC3C(N3C)C12OC` (stereo not given): the GI50 is 4.1 µM (inactive) in the assay with DU-145; 11.5 µM (inactive) in the assay on BT-549; > 88.5 µM (inactive) in the assay with MDA-N; 9.86 µM (inactive) with M14; 11.7 µM (inactive) in the assay on NCI-H522; > 100 µM (inactive) in the assay with MDA-MB-231. Moreover, the GI50 with COLO 205 is 27.6 µM (inactive); in the assay with ACHN, 4.22 µM (inactive); in the assay on TK-10, 60.1 µM (inactive); in the assay with SNB-19 it was 24 µM (inactive); with HOP-62, 6.44 µM (inactive); with LOX IMVI, 13.7 µM (inactive). Further, the GI50 with NCI-H23 is 1.4 µM (inactive); with U-251 it was 23.8 µM (inactive); in the assay on SF-295 it was 7.76 µM (inactive); with SK-MEL-28, > 81.7 µM (inactive); in the assay with NCI-H226, > 87.7 µM (inactive); with SF-539 it was 16.6 µM (inactive). Moreover, the GI50 is 12.8 µM (inactive) in the assay with SK-MEL-5 and 19.5 µM (inactive) in the assay with UO-31.

On to `CCN(CC)C1=Nc2ccccc2-n2ccnc2C1`, for which the GI50 in the assay with DU-145, in the assay on BT-549, with MDA-N, with M14, with NCI-H522 and in the assay with MDA-MB-231 was > 100 µM (inactive) throughout. Moreover, the GI50 in the assay with COLO 205, with ACHN, in the assay with TK-10, in the assay on SNB-19, in the assay with HOP-62 and with LOX IMVI was > 100 µM (inactive) in each case. Moreover, the GI50 with NCI-H23, in the assay on U-251, in the assay with SF-295, in the assay on SK-MEL-28, in the assay with NCI-H226 and with SF-539 was > 100 µM (inactive) in each case. The GI50 in the assay on SK-MEL-5 and in the assay with UO-31 was > 100 µM (inactive) throughout.

Turning to `CCN1CCC(O)(/C=C/c2ccc(Cl)c(Cl)c2)C(C(=O)/C=C/c2ccc(Cl)c(Cl)c2)C1` (stereo not given), the GI50 is 1.13 µM (inactive) with DU-145; 0.733 µM (active) in the assay on BT-549; 1.55 µM (inactive) with MDA-N; 0.733 µM (active) with M14; 0.948 µM (active) in the assay on NCI-H522; 0.635 µM (active) in the assay on MDA-MB-231. For the same compound, the GI50 in the assay with COLO 205 was 0.705 µM (active); with ACHN, 1.06 µM (active); with TK-10, 1.32 µM (inactive); in the assay with SNB-19 it was 1.89 µM (inactive); in the assay with HOP-62 it was 0.951 µM (active); in the assay with LOX IMVI, 0.794 µM (active). The GI50 in the assay on NCI-H23 was 0.255 µM (active); in the assay with U-251, 2.11 µM (inactive); in the assay on SF-295, 0.713 µM (active); in the assay with SK-MEL-28, 0.881 µM (active); in the assay on NCI-H226, 1.84 µM (inactive); with SF-539, 1.95 µM (inactive). Besides, the GI50 in the assay on SK-MEL-5 was 0.834 µM (active); in the assay with UO-31, 0.995 µM (active).

Turning to `N#CC(NCc1cccc(CNC(C#N)c2ccccc2)c1)c1ccccc1` (stereo not given), the GI50 is > 100 µM (inactive) in the assay with DU-145; 24.7 µM (inactive) with BT-549; 37.2 µM (inactive) in the assay with MDA-N; 26.1 µM (inactive) in the assay with M14; 40.3 µM (inactive) in the assay on NCI-H522; 26.2 µM (inactive) in the assay on MDA-MB-231. Also, the GI50 was 19.5 µM (inactive) in the assay on COLO 205; > 100 µM (inactive) in the assay on ACHN; 46.2 µM (inactive) with TK-10; 64.4 µM (inactive) in the assay on SNB-19; > 100 µM (inactive) with HOP-62; 15 µM (inactive) in the assay on LOX IMVI. Further, the GI50 was > 100 µM (inactive) with NCI-H23; 31.1 µM (inactive) with U-251; 18.7 µM (inactive) with SF-295; 18.1 µM (inactive) with SK-MEL-28; > 100 µM (inactive) in the assay with NCI-H226; 0.0261 µM (active) in the assay with SF-539. Besides, the GI50 in the assay on SK-MEL-5 is 42.3 µM (inactive); in the assay with UO-31, 94.4 µM (inactive).

In the case of `CO/N=C1\CC(C)N2C(=O)C(C(C)C)NC(=O)C(NC(=O)c3c4nc5c(C(=O)NC6C(=O)NC(C(C)C)C(=O)N7C(C)CC(O)C7C(=O)N(C)CC(=O)N(C)C(C(C)C)C(=O)OC6C)ccc(C)c5oc-4c(C)c(=O)c3N)C(CO)OC(=O)C(C)N(C)C(=O)CN(C)C(=O)C12` (stereo not given), the GI50 in the assay with DU-145 was 1.97 µM (inactive); with BT-549, 2.45 µM (inactive); in the assay with MDA-N it was 0.773 µM (active); with M14, 2.26 µM (inactive); with NCI-H522, 0.249 µM (active); in the assay with MDA-MB-231, 0.656 µM (active). In addition, the GI50 with COLO 205 was 0.411 µM (active); in the assay on ACHN, 1.26 µM (inactive); in the assay with TK-10, 5.48 µM (inactive); in the assay on SNB-19 it was 0.684 µM (active); in the assay with HOP-62 it was 1.57 µM (inactive); in the assay on LOX IMVI, 0.156 µM (active). The GI50 with NCI-H23 is 1.43 µM (inactive); in the assay on U-251 it was 0.242 µM (active); in the assay on SF-295, 1.13 µM (inactive); in the assay with SK-MEL-28, 0.791 µM (active); in the assay with NCI-H226, 1.05 µM (active); in the assay with SF-539, 0.348 µM (active). Further, the GI50 in the assay on SK-MEL-5 was 0.174 µM (active); in the assay with UO-31, 2.23 µM (inactive).

For the compound `Cc1cc(NC(=O)NC(=O)c2ccccc2NC(=O)CN(C)C)ccc1Oc1ncc(Br)cn1`, the GI50 in the assay with DU-145 is 2.41 µM (inactive); with BT-549, > 100 µM (inactive); with MDA-N, 0.221 µM (active); in the assay with M14, 1.58 µM (inactive); with NCI-H522, 1.14 µM (inactive); in the assay on MDA-MB-231 it was 1.95 µM (inactive). The GI50 was 2.38 µM (inactive) in the assay with COLO 205; 18 µM (inactive) in the assay with ACHN; 21.6 µM (inactive) in the assay with TK-10; 9.77 µM (inactive) in the assay with SNB-19; 2.76 µM (inactive) in the assay with HOP-62; 9.98 µM (inactive) in the assay with LOX IMVI. Also, the GI50 was 4.67 µM (inactive) with NCI-H23; 3.92 µM (inactive) in the assay with U-251; 0.748 µM (active) with SF-295; 14.9 µM (inactive) in the assay with SK-MEL-28; 6.76 µM (inactive) in the assay with NCI-H226; 1.56 µM (inactive) in the assay with SF-539. Moreover, the GI50 in the assay with SK-MEL-5 is 1.45 µM (inactive); in the assay with UO-31, 8.55 µM (inactive).
